Values joined by “and” are separate entries in the source; they are usually repeats but may differ in a detail not shown here. Identical values can stand only once.
Assay: xn = mol fraction of the nth substance listed

OCCCCO + O
viscosity
Settings | 298.15 K | 303.15 K | 308.15 K | 313.15 K | 318.15 K | 323.15 K
101 kPa, x1 = 0.0099 | – | 0.933 mPa·s | 0.836 mPa·s | 0.755 mPa·s | 0.687 mPa·s | 0.63 mPa·s
101 kPa, x1 = 0.0201 | – | 1.09 mPa·s | 0.971 mPa·s | 0.871 mPa·s | 0.788 mPa·s | 0.718 mPa·s
101 kPa, x1 = 0.0299 | – | 1.256 mPa·s | – | 0.989 mPa·s | 0.89 mPa·s | 0.806 mPa·s
101 kPa, x1 = 0.0399 | – | 1.429 mPa·s | 1.256 mPa·s | 1.113 mPa·s | 0.998 mPa·s | 0.899 mPa·s
101 kPa, x1 = 0.05 | 1.94 mPa·s | 1.625 mPa·s | 1.48 mPa·s and 1.424 mPa·s | 1.258 mPa·s | 1.14 mPa·s and 1.12 mPa·s | 1.004 mPa·s
101 kPa, x1 = 0.0599 | – | 1.838 mPa·s | 1.595 mPa·s | 1.4 mPa·s | 1.243 mPa·s | 1.11 mPa·s
101 kPa, x1 = 0.0699 | – | 2.057 mPa·s | 1.781 mPa·s | 1.559 mPa·s | 1.376 mPa·s | –
101 kPa, x1 = 0.075 | 2.65 mPa·s | – | 1.93 mPa·s | – | 1.44 mPa·s | –
101 kPa, x1 = 0.08 | – | 2.298 mPa·s | 1.982 mPa·s | 1.724 mPa·s | 1.518 mPa·s | 1.347 mPa·s
101 kPa, x1 = 0.0901 | – | 2.553 mPa·s | 2.192 mPa·s | 1.901 mPa·s | 1.666 mPa·s | 1.472 mPa·s
101 kPa, x1 = 0.1 | 3.397 mPa·s | 2.818 mPa·s and 2.803 mPa·s | 2.44 mPa·s and 2.404 mPa·s and 2.514 mPa·s | 2.079 mPa·s | 1.84 mPa·s and 1.817 mPa·s | 1.602 mPa·s
101 kPa, x1 = 0.15 | 5.39 mPa·s | – | 3.78 mPa·s | – | 2.68 mPa·s | –
101 kPa, x1 = 0.2 | 7.88 mPa·s | – | 5.24 mPa·s | – | 3.72 mPa·s | –
101 kPa, x1 = 0.2001 | 9.496 mPa·s | 7.867 mPa·s | – | – | – | –
101 kPa, x1 = 0.3007 | 13.82 mPa·s | 11.16 mPa·s | 9.319 mPa·s | – | – | –
101 kPa, x1 = 0.4 | 21.4 mPa·s | – | – | – | 9.25 mPa·s | –
101 kPa, x1 = 0.4006 | 21 mPa·s | 16.91 mPa·s | 13.99 mPa·s | – | – | –
101 kPa, x1 = 0.4977 | 29.42 mPa·s | 23.41 mPa·s | 19.16 mPa·s | – | – | –
101 kPa, x1 = 0.6 | 41.4 mPa·s | – | 25 mPa·s | – | 16.2 mPa·s | –
101 kPa, x1 = 0.6002 | 38.85 mPa·s | 30.89 mPa·s | 25.12 mPa·s | – | – | –
101 kPa, x1 = 0.6982 | 47.66 mPa·s | 38.2 mPa·s | 30.3 mPa·s | – | – | –
101 kPa, x1 = 0.7993 | 56.65 mPa·s | 44.81 mPa·s | 36.18 mPa·s | – | – | –
101 kPa, x1 = 0.8 | 60.5 mPa·s | – | 36.9 mPa·s | – | 23.8 mPa·s | –
101 kPa, x1 = 0.8969 | 63.9 mPa·s | 48.65 mPa·s | – | – | – | –
101 kPa, x1 = 0.9 | 68.4 mPa·s | – | 40.3 mPa·s | – | 27.1 mPa·s | –
101.3 kPa, x1 = 0.7917 | – | – | – | 29.65 mPa·s | – | –
101.3 kPa, x2 = 0.4531 | 33.95 mPa·s | – | – | – | – | –
101.3 kPa, x2 = 0.6513 | 18.65 mPa·s | – | – | – | – | –
